Reference: the NIST ThermoML archive (doi:10.1016/j.fluid.2015.07.030)
± gives the expanded uncertainty stated by the source.

Assay: refractive index (other wavelength) (dimensionless); xn = mol fraction of the nth substance listed
Settings: 95.99 kPa, Liquid, Standard Abbe refractometry

OCCOCCOCCO [triethylene glycol] + O
refractive index
Settings	Wavelength=404.7 nm	Wavelength=435.8 nm	Wavelength=486.1 nm	Wavelength=546.1 nm	Wavelength=587.6 nm	Wavelength=589.3 nm	Wavelength=632.8 nm	Wavelength=644 nm	Wavelength=706.5 nm
298.15 K, x2 = 0	–	–	–	1.45629 ± 0.00033	1.45447 ± 0.00033	1.4544 ± 0.00033	1.45284 ± 0.00033	1.45249 ± 0.00033	1.45075 ± 0.00033
298.15 K, x2 = 0.1056	–	–	–	1.45488 ± 0.00033	1.45307 ± 0.00033	1.453 ± 0.00033	1.45145 ± 0.00033	1.45109 ± 0.00033	1.44937 ± 0.00033
298.15 K, x2 = 0.2069	–	–	–	1.45318 ± 0.00032	1.45138 ± 0.00032	1.45132 ± 0.00032	1.44978 ± 0.00032	1.44942 ± 0.00032	1.44768 ± 0.00032
298.15 K, x2 = 0.3104	–	–	–	1.44993 ± 0.00032	1.44814 ± 0.00032	1.44807 ± 0.00032	1.44653 ± 0.00032	1.44617 ± 0.00032	1.44445 ± 0.00032
298.15 K, x2 = 0.4844	–	–	–	1.44606 ± 0.00032	1.44428 ± 0.00032	1.44422 ± 0.00032	1.44269 ± 0.00032	1.44234 ± 0.00032	1.44065 ± 0.00032
298.15 K, x2 = 0.5016	–	–	1.44841 ± 0.00032	1.44506 ± 0.00032	1.44328 ± 0.00032	1.44322 ± 0.00032	1.44169 ± 0.00032	1.44134 ± 0.00032	1.43966 ± 0.00032
298.15 K, x2 = 0.5952	–	–	1.44171 ± 0.00032	1.43842 ± 0.00032	1.43668 ± 0.00032	1.43661 ± 0.00032	1.4351 ± 0.00032	1.43475 ± 0.00032	1.43307 ± 0.00032
298.15 K, x2 = 0.6016	–	–	1.44175 ± 0.00032	1.43845 ± 0.00032	1.43673 ± 0.00032	1.43666 ± 0.00032	1.43516 ± 0.00032	1.43481 ± 0.00032	1.4331 ± 0.00032
298.15 K, x2 = 0.6788	–	–	1.43522 ± 0.00032	1.43197 ± 0.00032	1.43025 ± 0.00032	1.43019 ± 0.00032	1.4287 ± 0.00032	1.42835 ± 0.00032	1.42668 ± 0.00032
298.15 K, x2 = 0.7835	–	–	1.42571 ± 0.00032	1.42254 ± 0.00032	1.42088 ± 0.00032	1.42082 ± 0.00032	1.41936 ± 0.00032	1.41901 ± 0.00032	1.41733 ± 0.00032
298.15 K, x2 = 0.8184	–	–	1.42045 ± 0.00032	1.41732 ± 0.00032	1.41568 ± 0.00032	1.41562 ± 0.00032	1.41417 ± 0.00032	1.41382 ± 0.00032	1.41213 ± 0.00032
298.15 K, x2 = 0.8473	–	–	1.41417 ± 0.00032	1.41108 ± 0.00032	1.40947 ± 0.00032	1.40941 ± 0.00032	1.40798 ± 0.00032	1.40763 ± 0.00032	1.40596 ± 0.00032
298.15 K, x2 = 0.8719	–	–	1.40723 ± 0.00032	1.40421 ± 0.00032	1.40261 ± 0.00032	1.40255 ± 0.00032	1.40113 ± 0.00032	1.40079 ± 0.00032	1.39912 ± 0.00032
298.15 K, x2 = 0.8926	–	–	1.3994 ± 0.00032	1.39645 ± 0.00032	1.39488 ± 0.00032	1.39482 ± 0.00032	1.39343 ± 0.00032	1.3931 ± 0.00032	1.39147 ± 0.00032
298.15 K, x2 = 0.9106	–	–	1.39379 ± 0.00032	1.39086 ± 0.00032	1.3893 ± 0.00032	1.38924 ± 0.00032	1.38785 ± 0.00032	1.38752 ± 0.00032	1.38588 ± 0.00032
298.15 K, x2 = 0.9254	–	–	1.3833 ± 0.00032	1.38042 ± 0.00032	1.37889 ± 0.00032	1.37884 ± 0.00032	1.37748 ± 0.00032	1.37714 ± 0.00032	1.37553 ± 0.00032
298.15 K, x2 = 0.9303	–	–	1.38472 ± 0.00031	1.38187 ± 0.00031	1.38035 ± 0.00031	1.38029 ± 0.00031	1.37892 ± 0.00031	1.37859 ± 0.00031	1.37697 ± 0.00031
298.15 K, x2 = 0.9391	–	–	1.38066 ± 0.00032	1.37781 ± 0.00032	1.37628 ± 0.00032	1.37622 ± 0.00032	1.37485 ± 0.00032	1.37452 ± 0.00032	1.3729 ± 0.00032
298.15 K, x2 = 0.951	–	–	1.37385 ± 0.00031	1.37104 ± 0.00031	1.36953 ± 0.00031	1.36947 ± 0.00031	1.36812 ± 0.00031	1.3678 ± 0.00031	1.3662 ± 0.00032
298.15 K, x2 = 0.9599	–	–	1.36797 ± 0.00031	1.36514 ± 0.00031	1.36364 ± 0.00031	1.36359 ± 0.00031	1.36225 ± 0.00031	1.36139 ± 0.00031	1.36035 ± 0.00031
298.15 K, x2 = 0.9708	–	–	1.35998 ± 0.00031	1.35727 ± 0.00031	1.35581 ± 0.00031	1.35576 ± 0.00031	1.35444 ± 0.00031	1.35412 ± 0.00031	1.35254 ± 0.00031
298.15 K, x2 = 0.979	–	–	1.35488 ± 0.00031	1.35218 ± 0.00031	1.35072 ± 0.00031	1.35066 ± 0.00031	1.34937 ± 0.00031	1.34905 ± 0.00031	1.34751 ± 0.00031
298.15 K, x2 = 0.9867	–	–	1.34888 ± 0.00031	1.34617 ± 0.00031	1.34473 ± 0.00031	1.34467 ± 0.00031	1.3434 ± 0.00031	1.34308 ± 0.00031	1.34153 ± 0.00031
298.15 K, x2 = 0.9936	–	–	1.34258 ± 0.00031	1.33995 ± 0.00031	1.33852 ± 0.00031	1.33847 ± 0.00031	1.3372 ± 0.00031	1.3369 ± 0.00031	1.3354 ± 0.00031
303.15 K, x2 = 0	1.4657 ± 0.00033	1.46213 ± 0.00033	1.45796 ± 0.00033	1.45455 ± 0.00033	1.45273 ± 0.00033	–	–	–	–
303.15 K, x2 = 0.1056	1.4643 ± 0.00033	1.46075 ± 0.00033	1.4566 ± 0.00033	1.45317 ± 0.00033	1.45138 ± 0.00033	–	–	–	–
303.15 K, x2 = 0.2069	1.46262 ± 0.00032	1.4591 ± 0.00032	1.45496 ± 0.00032	1.45155 ± 0.00032	1.44975 ± 0.00032	–	–	–	–
303.15 K, x2 = 0.3104	1.45889 ± 0.00032	1.45541 ± 0.00032	1.45129 ± 0.00032	1.4479 ± 0.00032	1.44612 ± 0.00032	–	–	–	–
303.15 K, x2 = 0.4844	1.45533 ± 0.00032	1.4519 ± 0.00032	1.4478 ± 0.00032	1.44445 ± 0.00032	1.44268 ± 0.00032	–	–	–	–
303.15 K, x2 = 0.5016	1.45432 ± 0.00032	1.4509 ± 0.00032	1.44681 ± 0.00032	1.44347 ± 0.00032	1.4417 ± 0.00032	–	–	–	–
303.15 K, x2 = 0.5952	1.44749 ± 0.00032	1.44412 ± 0.00032	1.44014 ± 0.00032	1.43687 ± 0.00032	1.43513 ± 0.00032	–	–	–	–
303.15 K, x2 = 0.6016	1.44759 ± 0.00032	1.44421 ± 0.00032	1.44025 ± 0.00032	1.43697 ± 0.00032	1.43525 ± 0.00032	–	–	–	–
303.15 K, x2 = 0.6788	1.44091 ± 0.00032	1.43757 ± 0.00032	1.4337 ± 0.00032	1.43047 ± 0.00032	1.42877 ± 0.00032	–	–	–	–
303.15 K, x2 = 0.7835	1.4314 ± 0.00032	1.4281 ± 0.00032	1.42435 ± 0.00032	1.42118 ± 0.00032	1.41951 ± 0.00032	–	–	–	–
303.15 K, x2 = 0.8184	1.42604 ± 0.00032	1.4228 ± 0.00032	1.4191 ± 0.00032	1.41598 ± 0.00032	1.41434 ± 0.00032	–	–	–	–
303.15 K, x2 = 0.8473	1.41954 ± 0.00032	1.41636 ± 0.00032	1.41271 ± 0.00032	1.40964 ± 0.00032	–	–	–	–	–
303.15 K, x2 = 0.8719	1.41258 ± 0.00032	1.40944 ± 0.00032	1.40585 ± 0.00032	1.40283 ± 0.00032	–	–	–	–	–
303.15 K, x2 = 0.8926	1.4048 ± 0.00032	1.40173 ± 0.00032	1.39821 ± 0.00032	1.39527 ± 0.00032	–	–	–	–	–
303.15 K, x2 = 0.9106	1.39915 ± 0.00032	1.39612 ± 0.00032	1.39265 ± 0.00032	1.38973 ± 0.00032	–	–	–	–	–
303.15 K, x2 = 0.9254	1.38867 ± 0.00032	1.38572 ± 0.00032	1.38237 ± 0.00032	1.37951 ± 0.00032	–	–	–	–	–
303.15 K, x2 = 0.9303	1.38901 ± 0.00031	1.38707 ± 0.00031	1.38371 ± 0.00031	1.38085 ± 0.00031	–	–	–	–	–
303.15 K, x2 = 0.9391	1.38606 ± 0.00031	1.38312 ± 0.00031	1.37974 ± 0.00031	1.37691 ± 0.00031	–	–	–	–	–
303.15 K, x2 = 0.951	1.37929 ± 0.00031	1.37641 ± 0.00031	1.37311 ± 0.00031	1.3703 ± 0.00031	–	–	–	–	–
303.15 K, x2 = 0.9599	1.37327 ± 0.00031	1.37045 ± 0.00031	1.36721 ± 0.00031	1.36443 ± 0.00031	–	–	–	–	–
303.15 K, x2 = 0.9708	1.3651 ± 0.00031	1.36235 ± 0.00031	1.3592 ± 0.00031	1.35648 ± 0.00031	–	–	–	–	–
303.15 K, x2 = 0.979	1.36001 ± 0.00031	1.3573 ± 0.00031	1.35419 ± 0.00031	1.3515 ± 0.00031	–	–	–	–	–
303.15 K, x2 = 0.9867	1.3539 ± 0.00031	1.35126 ± 0.00031	1.34816 ± 0.00031	1.3455 ± 0.00031	–	–	–	–	–
303.15 K, x2 = 0.9936	1.3476 ± 0.00031	1.34502 ± 0.00031	1.34197 ± 0.00031	1.33934 ± 0.00031	–	–	–	–	–
